Six molecules from US12004506B2, “Pharmaceutical composition comprising a cyclic peptide of formula X1-[sequence]-X2 and use for extracorporeal lung treatment” (priority 2013, dated 2024) can be followed below.

Like-named read-outs stand apart in the source and are kept apart here. Bridges are numbered along the chain shown (N, C = ends). Where no end group is shown, it is not given here.

Assay [1] relates to sodium ion current in A549 cells (deglycosylated cell surface). The assay is described as follows: Patch clamp assay, whole cell mode, on A549 cells deglycosylated with PNGase F. In kind it is cell-based, human. The conditions noted are these: 240 nM peptide, Eh -100 mV; for Whole cell current, pre-treatment with PNGase F: A549. Here is the method: In whole cell mode experiments as described above, A549 cells were incubated with “PNGase enzyme F” (Peptide-N^4-(N-acetyl-β-D-glucosaminyl)asparagine amidase F) 100 units for 1-5 minutes immediately prior to the patch clamp measurements and glass cover slips with the cultured cells were rinsed with external solution before being transferred to the chamber of the 1 mL bath.
The results of the deglycosylation experiments using the patch clamp assay in whole cell mode are presented in Table IV, wherein the effect of deglycosylation of A549 cells on activation of sodium ion current by peptides of SEQ ID NO:1 to SEQ ID NO:7 is indicated. Whole cell currents were recorded at Eh=−100 mV.

For assay [2], the system named is sodium ion current in A549 cell line. The conditions noted are these: for activity on sodium ion current (in words): A549, patch clamp. Here is the method: Experiments were carried out on the human epithelial cell line A549 (ATTAC Nr. CCL-185) in passages 80-90. Cells were grown in Dulbecco's modified Eagle's medium/nutrient mixture F12 Ham, supplemented with 10% fetal bovine serum and containing 1% penicillin-streptomycin. All culture media were purchased from Sigma-Aldrich GmbH (St. Louis, MO).
Currents were recorded with the patch clamp method in the whole-cell mode. Glass cover slips with the cultured cells were transferred to a chamber of 1 ml capacity, mounted on the stage of an inverted microscope (Zeiss, Axiovert 100). The chamber contained 1 ml of the bath solution of the following composition (in mM): 145 NaCl, 2.7 KCl, 1.8 CaCl2), 2 MgCl2, 5.5 glucose and 10 HEPES, adjusted to pH 7.4 with 1 M NaOH solution. Micropipettes were pulled from thin-walled borosilicate glass capillaries (World Precision Instruments, Inc., FL, USA) with a Flaming Brown micropipette puller (P87, Sutter Instruments, CA, USA) and polished on a microforge (Narishige, Tokyo, Japan) to obtain electrode resistances ranging from 2.0 to 3.5 MΩ. […] Chemicals for pipette and bathing solutions were supplied by Sigma-Aldrich (Vienna, Austria). Electrophysiological measurements were carried out with an Axopatch 200B patch clamp amplifier (Axon Instruments, CA, USA). Capacity transients were cancelled, and series resistance was compensated. Whole cell currents were filtered at 5 kHz and sampled at 10 KHz. Data acquisition and storage were processed directly to a PC equipped with pCLAMP 10.0 software (Axon Instruments, CA, USA).
After GΩ-seal formation, the equilibration period of 5 min was followed by control recordings at holding potentials (Eh) between −100 and +100 mV in 20 mV increments for 1 min at each Eh. […] The wash-in phase lasted about 1 min. […] Concentration-response curves and EC50-values were fitted and estimated for currents recorded at Eh of −100 mV with SigmaPlot 9.0. […] Subsequent addition of 10 mM tetraethylammonium chloride (TEA) indicated whether any observed increases in the current were due to potassium current. […]
(In general: In patch-clamp work, channel activity is measured electrically.)

The test system of assay [3] is non-ischemic pig donor lung. Briefly: Ex vivo lung perfusion (EVLP) of non-ischemic pig donor lungs, inhalative application. The conditions noted are these: pulmonary application. As to the method:
Brain death pigs were turned into dorsal position, and a longitudinal sternotomy was performed. The pericardium and both pleural cavities were opened. […] An inflow catheter was placed in the pulmonary artery through a purse-string on the right ventricular outflow tract.
The lungs (non-ischemic) were then preserved with an ante grade flush of cold isotonic preservation solution (50 ml per kg body weigh of pig, containing potassium ions, sodium ions, magnesium ions, calcium ions, chloride ions, dextran, glucose, buffering ions) through the inflow catheter. Incision of the left auricular appendix provides outflow. The lungs were ventilated during this period with 50% oxygen, and iced slush were placed in both pleural cavities and mediastinum.
The explanation technique was en bloc harvesting with heart and esophagus according to the following steps: • a) Dissection of soft tissue bridges to the thoracic cavity on both sides of the trachea. • b) Transsection of both pulmonal ligaments (very deep, difficult exposure), then of the VCI, the lower thoracic descendent aorta and the esophagus, respectively. • c) Blunt separation from remaining mediastinal adhesions. • d) Complete inflation of the donor lung prior of tracheal closure with a stapler.
After explantation, the lungs were wrapped in gauze, placed in an insulated ice bag filled with low-potassium dextran extracellular solution, and stored at 4° C. for 18 to 24 hours. A temperature probe was submerged in the container, which will be placed in a refrigerator.
For ex-vivo lung conditioning, the EVLP technique ([…]) was used. In the EVLP technique, donor lungs are placed into a circuit composed of a pump, ventilator and filters. EVLP technique, the temperature may increased up to 37 °C. In the EVLP, a ventilator is used to deliver oxygen to the lungs. The pump is used to perfuse the lungs with an extracellular solution containing human albumin and nutrition. During EVLP, the lung function can be evaluated regularly on key indicators. […]

The test system of assay [4] is sodium ion current in A549 cells (deglycosylated cell surface). The assay is described as follows: Patch clamp assay, whole cell mode, on A549 cells deglycosylated with PNGase F. As to conditions: 240 nM peptide, Eh -100 mV. In kind it is cell-based, human.

As for `C[C@@H]1NC(=O)CNC(=O)[C@H](CCC(=O)O)NC(=O)[C@@H]2CCCN2C(=O)[C@H]([C@@H](C)O)NC(=O)[C@H](CCC(=O)O)NC(=O)[C@H](CCCNC(=N)N)NC(=O)[C@H](CCC(N)=O)NC(=O)CNC(=O)CCCNC(=O)C[C@@H](C(=O)O)NC(=O)[C@H](Cc2ccc(O)cc2)NC(=O)[C@H](Cc2c[nH]c3ccccc23)NC(=O)[C@@H]2CCCN2C(=O)[C@H](CCCCN)NC(=O)[C@H](C)NC(=O)[C@H](CCC(=O)O)NC1=O` [SEQ ID NO: 5], the “Whole cell current, pre-treatment with PNGase F” value in assay [1] is on record as 22.4 pA (n = 3).

In the case of `C[C@@H]1NC(=O)CNC(=O)[C@H](CCC(=O)O)NC(=O)[C@@H]2CCCN2C(=O)[C@H]([C@@H](C)O)NC(=O)[C@H](CCC(=O)O)NC(=O)[C@H](CCCNC(=N)N)NC(=O)[C@H](CCC(N)=O)NC(=O)CNC(=O)CCNC(=O)CC[C@@H](C(=O)O)NC(=O)[C@H](Cc2ccc(O)cc2)NC(=O)[C@H](Cc2c[nH]c3ccccc23)NC(=O)[C@@H]2CCCN2C(=O)[C@H](CCCCN)NC(=O)[C@H](C)NC(=O)[C@H](CCC(=O)O)NC1=O` [SEQ ID NO: 6], the “Whole cell current, pre-treatment with PNGase F” value in assay [1] is 19.9 pA (n = 3).

Take `C[C@@H]1NC(=O)CNC(=O)[C@H](CCC(=O)O)NC(=O)[C@@H]2CCCN2C(=O)[C@H]([C@@H](C)O)NC(=O)[C@H](CCC(=O)O)NC(=O)[C@H](CCCNC(=N)N)NC(=O)[C@H](CCC(N)=O)NC(=O)CNC(=O)[C@@H](N)CCCNC(=O)CNC(=O)[C@H](Cc2ccc(O)cc2)NC(=O)[C@H](Cc2c[nH]c3ccccc23)NC(=O)[C@@H]2CCCN2C(=O)[C@H](CCCCN)NC(=O)[C@H](C)NC(=O)[C@H](CCC(=O)O)NC1=O` [SEQ ID NO: 4]: in assay [1], the “Whole cell current, pre-treatment with PNGase F” value is given as 22.5 pA (n = 3).

Regarding “Cyclo(CGQREAPAGAAAKPWYC) (disulfide 1-17) [SEQ ID NO: 7, reference compound]”, the “activity on sodium ion current (in words)” value in assay [2] is reported as “no activity”. Also, the “activity on sodium ion current (in words)” value in assay [2] (listed as SEQ ID NO:7) is “did not show activity”. In addition, the “EC50 (nM) on cellular sodium ion current” value in assay [2] (A549, whole cell recording, Eh -100 mV) is “no activity”. For the same molecule, in assay [1], the “activity in deglycosylation experiments (in words)” value is on record as “no activity” and the “Whole cell current, pre-treatment with PNGase F” value was “no avtivity”. Further, the “effects on lung function” value in assay [3] is “did not provide improving effects”. Moreover, the “Whole cell current, no pre-treatment with PNGase F” value in assay [4] was “no activity”.

As to `C[C@@H]1NC(=O)CNC(=O)[C@H](CCC(=O)O)NC(=O)[C@@H]2CCCN2C(=O)[C@H]([C@@H](C)O)NC(=O)[C@H](CCC(=O)O)NC(=O)[C@H](CCCNC(=N)N)NC(=O)[C@H](CCC(N)=O)NC(=O)CNC(=O)[C@@H](N)CCCCNC(=O)CNC(=O)[C@H](Cc2ccc(O)cc2)NC(=O)[C@H](Cc2c[nH]c3ccccc23)NC(=O)[C@@H]2CCCN2C(=O)[C@H](CCCCN)NC(=O)[C@H](C)NC(=O)[C@H](CCC(=O)O)NC1=O` [SEQ ID NO: 3], in assay [1], the “Whole cell current, pre-treatment with PNGase F” value is recorded as 20.6 pA (n = 3).

On to `C[C@@H]1NC(=O)CNC(=O)[C@H](CCC(=O)O)NC(=O)[C@@H]2CCCN2C(=O)[C@H]([C@@H](C)O)NC(=O)[C@H](CCC(=O)O)NC(=O)[C@H](CCCNC(=N)N)NC(=O)[C@H](CCC(N)=O)NC(=O)CNC(=O)[C@@H]2CCCN2C(=O)[C@H](CO)NC(=O)[C@@H](N)CCCCNC(=O)CC[C@@H](C(=O)O)NC(=O)[C@H](Cc2ccc(O)cc2)NC(=O)[C@H](Cc2c[nH]c3ccccc23)NC(=O)[C@@H]2CCCN2C(=O)[C@H](CCCCN)NC(=O)[C@H](C)NC(=O)[C@H](CCC(=O)O)NC1=O` [SEQ ID NO: 2], for which the “Whole cell current, pre-treatment with PNGase F” value in assay [1] is 21.3 pA (n = 3).
